Consider four molecules from patent US8389739B1, “Modulators of retinoid-related orphan receptor gamma” (Orphagen Pharmaceuticals, priority 2006, dated 2013).

The target of data set [1] is T1, hPPARδ (Homo sapiens, UniProt Q03181).
T1 construct: 138-441; expressed in transfected cells; host or cells: CHO cells, transient transfection
T1 sequence (Q03181 138-441): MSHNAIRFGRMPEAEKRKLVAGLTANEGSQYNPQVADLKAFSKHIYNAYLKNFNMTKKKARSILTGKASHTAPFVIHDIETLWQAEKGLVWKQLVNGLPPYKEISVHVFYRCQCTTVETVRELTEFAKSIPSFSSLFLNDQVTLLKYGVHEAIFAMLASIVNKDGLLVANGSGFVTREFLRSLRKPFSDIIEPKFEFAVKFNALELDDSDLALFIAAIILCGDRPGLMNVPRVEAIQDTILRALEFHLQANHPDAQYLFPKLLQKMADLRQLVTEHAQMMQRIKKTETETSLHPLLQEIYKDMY
The data set can be described thus: Crossreactive receptor transcriptional assay (Gal4 hybrid). Type of data set: cell-based. The procedure:
(§1) A firefly luciferase reporter gene for Gal4 DBD hybrid receptors, such as Gal4-RORγ, contains five copies of the Gal4 17-mer response element in its promoter and the coding sequence for firefly luciferase (pG5-luc, Promega). CHO (Chinese Hamster Ovary) cells were cultured in Ham's F12 medium supplemented with 10% fetal calf serum (Gemini Biologicals), 10 μg/ml penicillin and streptomycin, and were maintained in a humidified 37° C. incubator (Thermo Electron, Steri-Cycle) with 5% CO2. 24 hours before transfection, cells were plated in T175 flasks (5×10^6 cells/flask) or T75 flasks (1.7×10^6 cells/flask). Transient transfection of CHO cells was performed using TransIT-CHO reagents (Minis, Madison, Wis.) with a mixing ratio of 2:6:1 between plasmid DNA (in μg), TransIT-CHO (in μl) and CHO-mojo (in μl).
(§2) Plates are maintained at 37° C. in a humidified atmosphere with 7% CO2 overnight. Four (4) hours after cell seeding, compounds dissolved in DMSO at 10 mM were added to cells at final concentrations of 20 micromolar (μM) to 20 nanomolar (nM) in 0.2% DMSO in triplicate plates. Approximately 40 hours later, cytotoxicity in the assay well was characterized by addition of the dye resazurin (O'Brien, Wilson et al. 2000) to a final concentration of 3 μM. […] Percent viability was determined as 2 hour fluorescence, minus background at t=0 hours, normalized to DMSO controls. For detection of luciferase activity, media was removed from plates after the measurement of resazurin conversion, and SteadyLite luciferase reagent (Perkin-Elmer) was added (30 μl/well). Luminescence is detected with a Victor 2-V plate reader (Perkin-Elmer) and normalized to luciferase activity of DMSO control wells alone.

Data set [2] relates to liver triglycerides. The data set can be described thus: Liver triglycerides after oral dosing in C57BL/6 mice. The class given is in vivo. Conditions: Dex 12.5 mg/kg once 2 days before necropsy. The procedure: […] A small piece of the liver (˜200 mg) was weighed and extracted to determine triglyceride content. Glycerol was liberated from liver triglycerides by hydrolysis in base. The liver fragment was incubated overnight at 55° C. in 0.35 mls of ethanolic KOH (2 parts EtOH: 1 part 30% KOH) in a closed tube. A solution of 50% ethanol in water was added to bring the volume of each tube to 1.0 ml. The solution was cleared of debris by centrifugation, and the resulting supernatant increased to 1.2 ml with further addition of 50% ethanol. Aqueous 1 M MgCl2 (215 μl) was added to 200 μl of the supernatant, and the mixture was cleared by centrifugation again after standing 10 min on ice. Glycerol levels were measured with the Sigma Free Glycerol Reagent (Sigma-Aldrich, St. Louis, Mo.) according to the manufacturer's instructions. The triglyceride concentration (in milligrams per gram of liver wet weight) was determined by assuming average molecular weight of 1000 daltons for each molecule of triglyceride.

Data set [3] deals with thymocytes. In words: Thymus weight and thymocyte subpopulations after oral dosing in C57BL/6 mice. Type of data set: in vivo. The procedure: In addition, the total number and the fraction of the major thymocyte subpopulations including CD4^+CD8^+ (DP), CD4^+CD8^- (SP4^+) and CD4^-CD8^+ (SP8^+) were measured by cell surface staining followed by FACS analysis. […] The volume of cells was adjusted to 8 mls. Debris from the thymus was allowed to settle, and a 200 μl aliquot of cells was incubated with fluorescent antibodies to CD4 and CD8 for 15 minutes at room temperature. […] Before analytical flow cytometry was carried out (FACS Calibur, Becton Dickinson), Caltag counting beads (from Invitrogen) were added to allow absolute quantitation of cell number. Thymus subpopulations were determined after gating for live cells. […] Dexamethasone reproducibly induces rapid apoptosis of DP thymocytes and reduction of thymic mass ([…], Drupt et al. 2000; Zubkova, Mostowski et al. 2005).

Data set [4] addresses T2, hPPARα (Homo sapiens, UniProt Q07869).
T2 construct: 166-468; expressed in transfected cells; host or cells: CHO cells, transient transfection
T2 sequence (Q07869 166-468): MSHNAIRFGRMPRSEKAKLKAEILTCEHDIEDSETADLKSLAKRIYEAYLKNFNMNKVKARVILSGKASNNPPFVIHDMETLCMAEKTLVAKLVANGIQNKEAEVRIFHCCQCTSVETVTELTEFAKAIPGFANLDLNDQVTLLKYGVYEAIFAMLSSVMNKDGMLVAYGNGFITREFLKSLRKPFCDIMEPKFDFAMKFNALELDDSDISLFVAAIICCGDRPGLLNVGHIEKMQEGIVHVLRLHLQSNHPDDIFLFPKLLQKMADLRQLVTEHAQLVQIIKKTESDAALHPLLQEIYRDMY
The data set can be described thus: Crossreactive receptor transcriptional assay (Gal4 hybrid). Type of data set: cell-based. Conditions: activity of standard ligand at 20 μM. As for the experimental part:
as §1, §2

In data set [5] the test system is TH1 cell differentiation from naïve CD4+ T cells. In words: Differentiation of naïve CD4+ T cells with IL-12 (Th-1 protocol), IFN-γ staining by FACS. The settings on record: Table 8; 10 ng/ml; naïve CD4 cells, 5 days; mean ±SD; no cytokine 0.21. The class given is cell-based, mouse. A general note: A flow cytometer gives signals particle by particle.
Where [6] appears, read: Dex 12.5 mg/kg once 2 days before necropsy.

The EC50 is the concentration at which the effect is half-maximal. As to `CC(C)(Oc1ccc(CCNC(=O)c2ccc(Cl)cc2)cc1)C(=O)O` [Bezafibrate, bezafibrate, reference compound], the EC50 in data set [1] was more than 20 µM.
On to `C[C@@H]1C[C@H]2[C@@H]3CCC4=CC(=O)C=C[C@]4(C)[C@@]3(F)[C@@H](O)C[C@]2(C)[C@@]1(O)C(=O)CO` [Dexamethasone, dexamethasone], for which the “Liver triglycerides” value in data set [2] worked out at 35.3 ± 8.2 mg/g. Also, in data set [3] (setting [6]), the “Frequency of DP (% of total cells)” value is given as 4.2 ± 2.9%, the “Thymus weight” value came out at 49.7 µg, the “Total cells per thymus (×10^−6) DP” value was 1.0 ×10^−6 and the “Total cells per thymus (×10^−6) SP4” value was 3.9 ×10^−6. Further, the “Total cells per thymus (×10^−6) SP8” value in data set [3] (setting [6]) was 1.2 ×10^−6. Further, in data set [3] (dexamethasone positive control, once two days before sacrifice), the “effect on DP thymocytes, in words” value was “virtually total depletion of DP thymocytes”.
As to `Cc1cccc(Nc2cc(Cl)nc(SCC(=O)O)n2)c1C` [WY14643, reference compound], the “Efficacy at hPPARα” value in data set [4] is given as 6X.

B1: IL-12: exogenous cytokine, stimulates TH1 differentiation (protein, UniProt P29459 23-219; P29460 23-328, looked up)
Interleukin-12 subunit alpha: RNLPVATPDPGMFPCLHHSQNLLRAVSNMLQKARQTLEFYPCTSEEIDHEDITKDKTSTVEACLPLELTKNESCLNSRETSFITNGSCLASRKTSFMMALCLSSIYEDLKMYQVEFKTMNAKLLMDPKRQIFLDQNMLAVIDELMQALNFNSETVPQKSSLEEPDFYKTKIKLCILLHAFRIRAVTIDRVMSYLNAS
Interleukin-12 subunit beta: IWELKKDVYVVELDWYPDAPGEMVVLTCDTPEEDGITWTLDQSSEVLGSGKTLTIQVKEFGDAGQYTCHKGGEVLSHSLLLLHKKEDGIWSTDILKDQKEPKNKTFLRCEAKNYSGRFTCWWLTTISTDLTFSVKSSRGSSDPQGVTCGAATLSAERVRGDNKEYEYSVECQEDSACPAAEESLPIEVMVDAVHKLKYENYTSSFFIRDIIKPDPPKNLQLKPLKNSRQVEVSWEYPDTWSTPHSYFSLTFCVQVQGKSKREKKDRVFTDKTSATVICRKNASISVRAQDRYYSSSWSEWASVPCS
Turning to B1, the “IL-17 (%)” value in data set [5] came out at 0.09 ± 0.01%.
